Key:
Assay type in all cases: cell-based
Erwinia amylovora = assay: Photodynamic inactivation of Erwinia amylovora grown in liquid medium, CFU counted on plates; details: Table 1
Protocol: E. amylovora is grown in liquid medium. Samples are incubated for 30 min with 100 μM of Mg-Chlorophyllin with or without 5 mM of Disodium-EDTA, and then illuminated with 395 nm (fluence 26.6 J cm^−2) for 30 mins. CFU of the bacteria is counted on the plates.
In the experiment, E. amylovora were grown in liquid medium. Samples were incubated for 30 min with 100 μM of Mg-Chlorophyllin with or without Chelators, and then illuminated with 395 nm (fluence 26.6 J cm^−2) for 30 mins. CFU of the bacteria was counted on the plates.

Botrytis cinerea mycelia = assay: Photodynamic inhibition of Botrytis cinerea mycelia, percentage of dead samples after 7 days on agar
Protocol: In the experiments, Botrytis cinerea mycelia were grown in liquid medium for 48 hours. Small spheres of the mycelia (average diameter 2 mm) were incubated for 100 minutes with Mg-Chlorophyllin with or without 5 mM Disodium-EDTA. Samples were illuminated with 395 nm (fluence 106.6 J cm^−2) for 120 minutes and the radial growth of mycelial patches after 7 days on agar medium was measured. A sample was considered dead, if there was no growth observable after 7 days on agar plates.
In the experiments, Botrytis cinerea mycelia were grown in liquid medium for 48 hours. Small spheres of the mycelia (average diameter 2 mm) were incubated for 100 minutes with Mg-Chlorophyllin with or without 5 mM EDTA (calcium or disodium). Samples were illuminated with 395 nm (fluence 106.6 J cm^−2) for 120 min and the radial growth of mycelial patches after 7 days on agar medium was measured. A sample was considered dead, if there was no growth observable after 7 days on agar plates.
In the experiments, Botrytis cinerea mycelia were grown in liquid medium for 48 hours. Small spheres of the mycelia (average diameter 2 mm) were incubated for 100 minutes with Mg-Chlorophyllin with or without Baypure DS100 Samples were illuminated with 395 nm (fluence 106.6 J cm^−2) for 120 min and the radial growth of mycelial patches after 7 days on agar medium was measured. A sample was considered dead, if there was no growth observable after 7 days on agar plates.
The protocol for the PDI of B. cinerea was as follows (for experiments 3 and 4 described above): • Grow B. cinerea on malt-peptone-agar for some days. • Transfer spores of B. cinerea to liquid malt-peptone medium. • Incubate for 2-3 days at 26° C. under constant agitation. • Transfer the grown mycelia (spheres of mycelia, approximately 2 mm diameter) to 24 well plates. • Add 500 μl of the PS to the well. • Incubate under agitation for 100 minutes in the dark. • Illuminate under agitation for 120 minutes. • Transfer the treated mycelia to malt-peptone-agar plates and incubate for one week at room temperature. • Evaluate by counting of dead samples.

Sclerotinia homoeocarpa = assay: Radial growth of dollar spot fungus after treatment of plugs in PBS (24 well plates), dark vs light; details: for inhibition at 500 µM: Clarireedia homoeocarpa
Protocol: In this example, control of dollar spot fungus (Sclerotinia homoeocarpa) with chlorins combined with a chelating agent was assessed. Treatments were prepared in Phosphate Buffered Saline (PBS) in 24 well plates (in duplicates for light vs. dark incubation) at desired concentrations. Then, a 5 mm diameter plug of a Sclerotinia homoeocarpa isolate (3 isolates total tested) was inoculated into the PBS and incubated at 21° C. in the dark for 2 hours. After 2 hours, one of the 24 well plates (with isolates in triplicate) is left in the dark and one 24 well plate is placed under illumination for 1 hour (all at 21° C.). Following illumination, fungal plugs are removed from PBS, blotted dry on sterile filter paper and transferred to non-amended Potato Dextrose Agar (PDA). Radial growth of the fungus is monitored daily until the growth of S. homoeocarpa reaches the edge of the Petri-dish. Illumination is provided by LED lights emitting about 1000 μmol/m^2/s photosynthetically active radiation (PAR). In this example, control of dollar spot fungus (Sclerotinia homoeocarpa) with Zinc Protoporphyrin IX (Zn-PPIX) combined with EDTA was assessed. Treatments were prepared in Phosphate Buffered Saline (PBS) in 24 well plates (in duplicates for light vs. dark incubation) at desired concentrations. Then, a 5 mm diameter plug of a Sclerotinia homoeocarpa isolate (3 isolates total tested) was inoculated into the PBS and incubated at 21° C. in the dark for 2 hours. After 2 hours, one of the 24 well plates (with isolates in triplicate) is left in the dark and one 24 well plate is placed under illumination for 1 hour (all at 21° C.). Following illumination, fungal plugs are removed from PBS, blotted dry on sterile filter paper and transferred to non-amended Potato Dextrose Agar (PDA). Radial growth of the fungus is monitored daily until the growth of S. homoeocarpa reaches the edge of the Petri-dish. Illumination is provided by LED lights emitting about 1000 μmol/m^2/s photosynthetically active radiation (PAR). In this example, control of dollar spot fungus (Sclerotinia homoeocarpa) with bacteriochlorin combined with EDTA was assessed. Treatments were prepared in Phosphate Buffered Saline (PBS) in 24 well plates (in duplicates for light vs. dark incubation) at desired concentrations. Then, a 5 mm diameter plug of a Sclerotinia homoeocarpa isolate (3 isolates total tested) was inoculated into the PBS and incubated at 21° C. in the dark for 2 hours. After 2 hours, one of the 24 well plates (with isolates in triplicate) is left in the dark and one 24 well plate is placed under illumination for 1 hour (all at 21° C.). Following illumination, fungal plugs are removed from PBS, blotted dry on sterile filter paper and transferred to non-amended Potato Dextrose Agar (PDA). Radial growth of the fungus is monitored daily until the growth of S. homoeocarpa reaches the edge of the Petri-dish. Illumination is provided by LED lights emitting about 1000 μmol/m^2/s photosynthetically active radiation (PAR). In this example, control of dollar spot fungus (Sclerotinia homoeocarpa) with Aluminum chlorin e6 combined with EDTA was assessed. Treatments were prepared in Phosphate Buffered Saline (PBS) in 24 well plates (in duplicates for light vs. dark incubation) at desired concentrations. Then, a 5 mm diameter plug of a Sclerotinia homoeocarpa isolate (3 isolates total tested) was inoculated into the PBS and incubated at 21° C. in the dark for 2 hours. After 2 hours, one of the 24 well plates (with isolates in triplicate) is left in the dark and one 24 well plate is placed under illumination for 1 hour (all at 21° C.). Following illumination, fungal plugs are removed from PBS, blotted dry on sterile filter paper and transferred to non-amended Potato Dextrose Agar (PDA). Radial growth of the fungus is monitored daily until the growth of S. homoeocarpa reaches the edge of the Petri-dish. Illumination is provided by LED lights emitting about 1000 μmol/m^2/s photosynthetically active radiation (PAR). […]

[1] = Table 22A, dark, rate 500 μM, growth between 48 and 72 hours
[2] = Table 22B, light, rate 500 μM, growth between 48 and 72 hours

## C=Cc1c(C)c2cc3nc(c(CC(=O)[O-])c4[n-]c(cc5nc(cc1[n-]2)C(C)=C5CC)c(C)c4C(=O)[O-])C(CCC(=O)[O-])C3C.[Mg+2].[Na+].[Na+].[Na+] (stereo not shown) [Mg-Chlorophyllin, Mg-chlorophyllin]
Erwinia amylovora; Mg-Chlorophyllin 100 μM without EDTA, in light (395 nm, 30 mins)
  Relative inactivation, CFU: 1.9
Botrytis cinerea mycelia; Table 3, Mg-Chlorophyllin 10 μM alone, in light
  dead %: 0%
Botrytis cinerea mycelia; Table 3, Mg-Chlorophyllin 100 μM alone, in light
  dead %: 0%
Botrytis cinerea mycelia; Table 4, Mg-Chlorophyllin 100 μM alone, in light
  dead %: 0%
Botrytis cinerea mycelia; Table 27, MgChln 100 μM, with light
  Percentage of dead samples [%]: 0%
Sclerotinia homoeocarpa; Table 18A, dark, rate 10 μM
  % Inhibition: −3.98%
  Mean Radial Growth: 11.61 mm
Sclerotinia homoeocarpa; Table 18A, dark, rate 100 μM
  % Inhibition: −11.94%
  Mean Radial Growth: 12.50 mm
Sclerotinia homoeocarpa; Table 18B, light, rate 10 μM
  % Inhibition: 31.66%
  Mean Radial Growth: 7.56 mm
Sclerotinia homoeocarpa; Table 18B, light, rate 100 μM
  % Inhibition: 22.61%
  Mean Radial Growth: 8.56 mm
Sclerotinia homoeocarpa; Table 25A, dark, rate 5 μM
  % Inhibition: 1.04%
  Mean Radial Growth: 10.56 mm
Sclerotinia homoeocarpa; Table 25B, light, rate 5 μM
  % Inhibition: 37.76%
  Mean Radial Growth: 6.78 mm

## O=C(O)CN(CCN(CC(=O)O)CC(=O)O)CC(=O)O [EDTA, disodium EDTA]
Erwinia amylovora; EDTA 5 mM alone, in light
  Relative inactivation, CFU: 11.1
Botrytis cinerea mycelia; Table 3, EDTA 5 mM alone, in dark
  dead %: 0%
Botrytis cinerea mycelia; Table 3, EDTA 5 mM alone, with light
  dead %: 0%
Botrytis cinerea mycelia; Table 4, EDTA-Na 5 mM alone, with light
  dead %: 0%
Sclerotinia homoeocarpa; Table 18A, dark, rate 500 μM
  inhibition at 500 µM: 39.8%
  Mean Radial Growth: 6.72 mm
Sclerotinia homoeocarpa; Table 18B, light, rate 500 μM
  inhibition at 500 µM: 16.6%
  Mean Radial Growth: 9.22 mm
Sclerotinia homoeocarpa; Table 19A, light, rate 500 μM
  inhibition at 500 µM: 36%
  Mean Radial Growth: 7.11 mm
Sclerotinia homoeocarpa; Table 20A, dark, rate 500 μM
  inhibition at 500 µM: 32.8%
  Mean Radial Growth: 7.17 mm
Sclerotinia homoeocarpa; Table 20B, light, rate 500 μM
  inhibition at 500 µM: 33.5%
  Mean Radial Growth: 7.17 mm
Sclerotinia homoeocarpa; Table 21A, dark, rate 500 μM
  inhibition at 500 µM: 11.6%
  Mean Radial Growth: 11.06 mm
Sclerotinia homoeocarpa; Table 21B, light, rate 500 μM
  inhibition at 500 µM: 15.3%
  Mean Radial Growth: 10.78 mm
Sclerotinia homoeocarpa; [1]
  inhibition at 500 µM: -3.89%
  Mean Radial Growth: 14.83 mm
Sclerotinia homoeocarpa; [2]
  inhibition at 500 µM: 35.2%
  Mean Radial Growth: 8.89 mm
Sclerotinia homoeocarpa; Table 31A, dark, rate 500 μM
  inhibition at 500 µM: 13.6%
  Mean Radial Growth: 12.67 mm
Sclerotinia homoeocarpa; Table 31B, light, rate 500 μM
  inhibition at 500 µM: 36.4%
  Mean Radial Growth: 8.17 mm

— patent US20200253211A1, “PHOTODYNAMIC INHIBITION OF MICROBIAL PATHOGENS IN PLANTS” (SUNCOR ENERGY INC, priority 2017, published 2020)
